Assay results from US12545680B2, “Substituted oxaspiro[4.5]decanes as mor receptor agonists” (SHANGHAI HAIYAN PHARMACEUTICAL TECHNOLOGY CO., LTD., priority 2020, dated 2026).
Read-outs that look alike come from different tables or passages of the source.

Experiments:
MOR receptor (OPRM1) [1] = target: T1, MOR receptor (OPRM1) (Homo sapiens, UniProt P35372); assay: HTRF-cAMP cell experiment; conditions: for EC50 / cAMP Emax (%) Morphine was 100%: PathHunter CHO-K1 OPRM1 β-Arrestin cell line; for EC50: NKH477-stimulated cAMP, HTRF; for Emax: read-out: cAMP Emax (%) Morphine was 100%, PathHunter CHO-K1 OPRM1 β-Arrestin cell line; for Emax / cAMP Emax (%) Morphine was 100%: maximum effect relative to morphine = 100%
MOR receptor (OPRM1) [2] = target: T1, MOR receptor (OPRM1); assay: β-Arrestin cell experiment; conditions: maximum effect relative to morphine = 100%; for Emax: read-out: β-arrestin Emax (%) Morphine was 100%, PathHunter CHO-K1 OPRM1 β-Arrestin cell line; for β-arrestin Emax (%) Morphine was 100%: PathHunter CHO-K1 OPRM1 β-Arrestin cell line

T1 sequence (P35372 whole entry): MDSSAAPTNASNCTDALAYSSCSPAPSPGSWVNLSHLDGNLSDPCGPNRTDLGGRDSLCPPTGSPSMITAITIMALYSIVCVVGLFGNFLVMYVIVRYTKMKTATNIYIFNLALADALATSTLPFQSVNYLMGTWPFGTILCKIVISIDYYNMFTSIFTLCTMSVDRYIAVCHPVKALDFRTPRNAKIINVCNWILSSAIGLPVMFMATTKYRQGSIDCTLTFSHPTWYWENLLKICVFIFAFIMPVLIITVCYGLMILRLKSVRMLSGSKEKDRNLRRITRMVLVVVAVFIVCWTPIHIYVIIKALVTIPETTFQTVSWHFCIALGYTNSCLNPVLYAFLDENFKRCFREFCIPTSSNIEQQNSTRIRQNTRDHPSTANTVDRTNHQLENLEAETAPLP

Structure (SMILES) | EC50 (MOR receptor (OPRM1) [1]; cAMP EC50 (nM)) | Emax (MOR receptor (OPRM1) [1]) | Emax (MOR receptor (OPRM1) [2]) | cAMP Emax (%) Morphine was 100% (MOR receptor (OPRM1) [1]) | β-arrestin Emax (%) Morphine was 100% (MOR receptor (OPRM1) [2]) | EC50 (MOR receptor (OPRM1) [1]; read-out: cAMP EC50)
c1ccc([C@]2(CCNC3CCn4nccc43)CCOC3(CCCC3)C2)nc1 (stereo partly drawn) [Compound H-1, N-(2-((R)-9-(pyridin-2-yl)-6-oxaspiro[4.5]decan-9-yl)ethyl)-5,6-dihydro-4H-pyrrolo[1,2-b]pyrazol-4-amine] | 49 nM | 125% | 29.7% | – | – | –
CCC(C)C1CC(NCC[C@@]2(c3ccccn3)CCOC3(CCCC3)C2)c2ccnn21 (stereo partly drawn) [Compound H-15, 6-(sec-butyl)-N-(2-((R)-9-(pyridin-2-yl)-6-oxaspiro[4.5]decan-9-yl)ethyl)-5,6-dihydro-4H-pyrrolo[1,2-b]pyrazol-4-amine] | 84 nM | 64.9% | – | – | – | –
c1ccc([C@]2(CCNC3CC4(CCC4)n4nccc43)CCOC3(CCCC3)C2)nc1 (stereo partly drawn) [Compound H-21, N-(2-((R)-9-(pyridin-2-yl)-6-oxaspiro[4.5]decan-9-yl)ethyl)-4′,5′-dihydrospiro[cyclobutane-1,6′-pyrrolo[1,2-b]pyrazol]-4′-amine] | 22 nM | 70.8% | 8% | – | – | –
CCCC1CC(NCC[C@@]2(c3ccccn3)CCOC3(CCCC3)C2)c2ccnn21 (stereo partly drawn) [Compound H-14, 6-propyl-N-(2-((R)-9-(pyridin-2-yl)-6-oxaspiro[4.5]decan-9-yl)ethyl)-5,6-dihydro-4H-pyrrolo[1,2-b]pyrazol-4-amine] | 31 nM | 73% | 7.2% | – | – | –
CC1(C2CC(NCC[C@@]3(c4ccccn4)CCOC4(CCCC4)C3)c3ccnn32)CC1 (stereo partly drawn) [Compound H-10, 6-(1-methylcyclopropyl)-N-(2-((R)-9-(pyridin-2-yl)-6-oxaspiro[4.5]decan-9-yl)ethyl)-5,6-dihydro-4H-pyrrolo[1,2-b]pyrazol-4-amine] | 11 nM | 74.7% | 5.1% | – | – | –
CC(C)C1CC(NCC[C@@]2(c3ccccn3)CCOC3(CCCC3)C2)c2c(F)cnn21 (stereo partly drawn) [Compound H-9, 3-fluoro-6-isopropyl-N-(2-((R)-9-(pyridin-2-yl)-6-oxaspiro[4.5]decan-9-yl)ethyl)-5,6-dihydro-4H-pyrrolo[1,2-b]pyrazol-4-amine] | – | – | 1% | – | – | –
CCC1CC(NCC[C@@]2(c3ccccn3)CCOC3(CCCC3)C2)c2ccnn21 (mixture of isomers) [Compound H-4-2, 6-ethyl-N-(2-((R)-9-(pyridin-2-yl)-6-oxaspiro[4.5]decan-9-yl)ethyl)-5,6-dihydro-4H-pyrrolo[1,2-b]pyrazol-4-amine] | 18 nM | – | – | 91.8% | 4.8% | –
c1ccc([C@]2(CCNC3CC4(CCCC4)n4nccc43)CCOC3(CCCC3)C2)nc1 (stereo partly drawn) [Compound H-19, N-(2-((R)-9-(pyridin-2-yl)-6-oxaspiro[4.5]decan-9-yl)ethyl)-4′,5′-dihydrospiro[cyclopentane-1,6′-pyrrolo[1,2-b]pyrazol]-4′-amine] | 21 nM | 94.1% | 17.3% | – | – | –
FC(F)(F)C1(C2CC(NCC[C@@]3(c4ccccn4)CCOC4(CCCC4)C3)c3ccnn32)CC1 (stereo partly drawn) [Compound H-17, N-(2-((R)-9-(pyridin-2-yl)-6-oxaspiro[4.5]decan-9-yl)ethyl)-6-(1-(trifluoromethyl)cyclopropyl)-5,6-dihydro-4H-pyrrolo[1,2-b]pyrazol-4-amine] | 31 nM | 68.6% | 2.6% | – | – | –
CC1CC(NCC[C@@]2(c3ccccn3)CCOC3(CCCC3)C2)c2ccnn21 (mixture of isomers) [Compound H-12-1, 6-methyl-N-(2-((R)-9-(pyridin-2-yl)-6-oxaspiro[4.5]decan-9-yl)ethyl)-5,6-dihydro-4H-pyrrolo[1,2-b]pyrazol-4-amine] | 12 nM | – | 12% | 99.5% | – | –
CC1CC(NCC[C@@]2(c3ccccn3)CCOC3(CCCC3)C2)c2ccnn21 (mixture of isomers) [Compound H-12-2, 6-methyl-N-(2-((R)-9-(pyridin-2-yl)-6-oxaspiro[4.5]decan-9-yl)ethyl)-5,6-dihydro-4H-pyrrolo[1,2-b]pyrazol-4-amine] | – | – | – | 77.8% | 15.7% | 12 nM
CC(C)(C)C1CC(NCC[C@@]2(c3ccccn3)CCOC3(CCCC3)C2)c2ccnn21 (stereo partly drawn) [Compound H-6, 6-tert-butyl-N-(2-((R)-9-(pyridin-2-yl)-6-oxaspiro[4.5]decan-9-yl)ethyl)-5,6-dihydro-4H-pyrrolo[1,2-b]pyrazol-4-amine] | 9 nM | 99.6% | 15.3% | – | – | –
COC(C)(C)C1CC(NCC[C@@]2(c3ccccn3)CCOC3(CCCC3)C2)c2ccnn21 (stereo partly drawn) [Compound H-2, 6-(2-methoxypropan-2-yl)-N-(2-((R)-9-(pyridin-2-yl)-6-oxaspiro[4.5]decan-9-yl)ethyl)-5,6-dihydro-4H-pyrrolo[1,2-b]pyrazol-4-amine] | 47 nM | 93.2% | 6.2% | – | – | –
CC1(C)CC(NCC[C@@]2(c3ccccn3)CCOC3(CCCC3)C2)c2ccnn21 (stereo partly drawn) [Compound H-22, 6,6-dimethyl-N-(2-((R)-9-(pyridin-2-yl)-6-oxaspiro[4.5]decan-9-yl)ethyl)-5,6-dihydro-4H-pyrrolo[1,2-b]pyrazol-4-amine] | 11 nM | 104% | 39.9% | – | – | –
CC(C)(F)C1CC(NCC[C@@]2(c3ccccn3)CCOC3(CCCC3)C2)c2ccnn21 (stereo partly drawn) [Compound H-7, 6-(2-fluoropropan-2-yl)-N-(2-((R)-9-(pyridin-2-yl)-6-oxaspiro[4.5]decan-9-yl)ethyl)-5,6-dihydro-4H-pyrrolo[1,2-b]pyrazol-4-amine] | 29 nM | 105% | 22.1% | – | – | –
CC(C)C1CC(NCC[C@@]2(c3ccccn3)CCOC3(CCCC3)C2)c2ccnn21 (stereo partly drawn) [Compound H-11, 6-(isopropyl)-N-(2-((R)-9-(pyridin-2-yl)-6-oxaspiro[4.5]decan-9-yl)ethyl)-5,6-dihydro-4H-pyrrolo[1,2-b]pyrazol-4-amine] | 15 nM | 84.8% | 4.3% | – | – | –
c1ccc([C@]2(CCNC3CC(C4CCCC4)n4nccc43)CCOC3(CCCC3)C2)nc1 (stereo partly drawn) [Compound H-5, 6-cyclopentyl-N-(2-((R)-9-(pyridin-2-yl)-6-oxaspiro[4.5]decan-9-yl)ethyl)-5,6-dihydro-4H-pyrrolo[1,2-b]pyrazol-4-amine] | – | – | 4.8% | – | – | –
CCC1CC(NCC[C@@]2(c3ccccn3)CCOC3(CCCC3)C2)c2ccnn21 (mixture of isomers) [Compound H-4-1, 6-ethyl-N-(2-((R)-9-(pyridin-2-yl)-6-oxaspiro[4.5]decan-9-yl)ethyl)-5,6-dihydro-4H-pyrrolo[1,2-b]pyrazol-4-amine] | 8 nM | – | – | 64.1% | 1.8% | –
c1ccc([C@]2(CCNC3CC(C4CC4)n4nccc43)CCOC3(CCCC3)C2)nc1 (stereo partly drawn) [Compound H-3, 6-cyclopropyl-N-(2-((R)-9-(pyridin-2-yl)-6-oxaspiro[4.5]decan-9-yl)ethyl)-5,6-dihydro-4H-pyrrolo[1,2-b]pyrazol-4-amine] | 17 nM | 74.6% | 4.9% | – | – | –
c1ccc([C@]2(CCNC3CC4(CCOCC4)n4nccc43)CCOC3(CCCC3)C2)nc1 (stereo partly drawn) [Compound H-20, N-(2-((R)-9-(pyridin-2-yl)-6-oxaspiro[4.5]decan-9-yl)ethyl)-2,3,4′,5,5′,6-hexahydrospiro[pyran-4,6′-pyrrolo[1,2-b]pyrazol]-4′-amine] | 4 nM | 107% | – | – | – | –
CC(C)(C1CC(NCC[C@@]2(c3ccccn3)CCOC3(CCCC3)C2)c2ccnn21)C(F)(F)F (stereo partly drawn) [Compound H-18, N-(2-((R)-9-(pyridin-2-yl)-6-oxaspiro[4.5]decan-9-yl)ethyl)-6-(1,1,1,-trifluoro-2-methylprop-2-yl)-5,6-dihydro-4H-pyrrolo[1,2-b]pyrazol-4-amine] | – | – | – | 89.1% | – | 68 nM
